Laboratory results taken from US20230013669A1, “Antibacterial Treatment Using a Cannabinoid and an Active Agent” (priority 2019, published 2023).
≈ marks a conversion by molar mass, not a printed value. Where “and” joins values, the source holds several entries; their conditions need not be identical. Equal values may be shown once. Read-outs that look alike come from different tables or passages of the source.

Assays:
[1] = test system: Klebsiella pneumoniae ATCC 700603; assay: Synergy of cannabidiol with cell-wall disrupting agent (CBD MIC in combination, FICI); format: cell-based; conditions: for FICI range: CBD with Spero SPR206; for FICI: CBD MIC taken as 256 μg/mL; for MIC: Klebsiella pneumoniae
Description: Methods were as for Example 1. Cannabidiol was tested in combination with cefotetan.
Methods were as for Example 1. Cannabidiol was tested in combination with aztreonam.
Methods were as for Example 1. Cannabidiol was tested in combination with cefepime.
Methods were as for Example 1. Cannabidiol was tested in combination with octapeptin C4.
Methods were as for Example 1. Cannabidiol was tested in combination with Spero SPR206. The experiments were carried out three times.

[2] = test system: Escherichia coli ATCC 25922 (GN_001); assay: MIC micro-broth dilution assay (Example 1 method); format: cell-based; conditions: for MIC: ATCC25922

**Q.** For `C=C(C)C1CCC(C)=CC1c1c(O)cc(CCCCC)cc1O` (stereo not drawn) [Cannabidiol, 2-[3-methyl-6-(1-methylethenyl)-2-cyclohexen-1-yl]-5-pentyl-1,3-benzenediol], which FICI range ([1]; 1st of 3 experiments) is on record?
**A.** 0.52-16

**Q.** And the FICI range ([1]; 2nd of 3 experiments)?
**A.** 0.28-1.12

**Q.** What about the FICI range ([1]; 3rd of 3 experiments) of the same compound?
**A.** 1.25-8

**Q.** And the FICI ([1]; CBD with Spero SPR206 at 0.007 μg/mL, 2nd of 3 experiments)?
**A.** 1.014

**Q.** And the FICI ([1]; CBD with Spero SPR206 at 0.015 μg/mL, 2nd of 3 experiments)?
**A.** 1.03

**Q.** What about the FICI ([1]; CBD with Spero SPR206 at 0.031 μg/mL, 2nd of 3 experiments) of the same compound?
**A.** 1.062

**Q.** And the FICI ([1]; CBD with Spero SPR206 at 0.062 μg/mL, 2nd of 3 experiments)?
**A.** 1.124

**Q.** What about the FICI ([1]; CBD with Spero SPR206 at 0.25 μg/mL, 1st of 3 experiments) of the same compound?
**A.** 1

**Q.** And the FICI ([1]; CBD with Spero SPR206 at 0.25 μg/mL, 2nd of 3 experiments)?
**A.** 0.5039

**Q.** And the FICI ([1]; CBD with Spero SPR206 at 0.25 μg/mL, 3rd of 3 experiments)?
**A.** 1.5

**Q.** And the FICI ([1]; CBD with Spero SPR206 at 0.5 μg/mL, 1st of 3 experiments)?
**A.** 2

**Q.** What about the FICI ([1]; CBD with Spero SPR206 at 0.5 μg/mL, 3rd of 3 experiments) of the same compound?
**A.** 2

**Q.** What about the FICI ([1]; CBD with Spero SPR206 at 1 μg/mL, 1st of 3 experiments) of the same compound?
**A.** 4

**Q.** What about the FICI ([1]; CBD with Spero SPR206 at 1 μg/mL, 3rd of 3 experiments) of the same compound?
**A.** 3

**Q.** And the FICI ([1]; CBD with Spero SPR206 at 2 μg/mL, 1st of 3 experiments)?
**A.** 8

**Q.** What about the FICI ([1]; CBD with Spero SPR206 at 2 μg/mL, 3rd of 3 experiments) of the same compound?
**A.** 4.004 and 4.008

**Q.** And the FICI ([1]; CBD with Spero SPR206 at 4 μg/mL, 1st of 3 experiments)?
**A.** 16

**Q.** What about the FICI ([1]; CBD with Spero SPR206 at 4 μg/mL, 3rd of 3 experiments) of the same compound?
**A.** 8

**Q.** What about the FICI ([1]; CBD with Spero SPR206 at […], 1st of 3 experiments) of the same compound?
**A.** 0.5156

**Q.** What about the “CBD MIC with Cefotetan” value ([1]; Cefotetan at 0.015 μg/mL) of the same compound?
**A.** >32 µg/mL

**Q.** And the “CBD MIC with Cefotetan” value ([1]; Cefotetan at 0.031 μg/mL)?
**A.** >32 µg/mL

**Q.** And the “CBD MIC with Cefotetan” value ([1]; Cefotetan at 0.062 μg/mL)?
**A.** >32 µg/mL

**Q.** What about the “CBD MIC with Cefotetan” value ([1]; Cefotetan at 0.25 μg/mL) of the same compound?
**A.** >32 µg/mL

**Q.** What about the “CBD MIC with Cefotetan” value ([1]; Cefotetan at 0.5 μg/mL) of the same compound?
**A.** 0.001 µg/mL

**Q.** What about the “CBD MIC with Cefotetan” value ([1]; Cefotetan at […]) of the same compound?
**A.** >32 µg/mL

**Q.** And the MIC ([1]; ATCC700603, Octapeptin C4 at 4 μg/mL, read-out: CBD MIC with Octapeptin C4)?
**A.** 1 µg/mL

**Q.** And the MIC ([1]; ATCC700603, Spero SPR206 at 0.007 μg/mL, 2nd of 3 experiments, read-out: CBD MIC with Spero SPR206)?
**A.** > 256 µg/mL

**Q.** And the MIC ([1]; ATCC700603, Spero SPR206 at 0.015 μg/mL, 2nd of 3 experiments, read-out: CBD MIC with Spero SPR206)?
**A.** > 256 µg/mL

**Q.** What about the MIC ([1]; ATCC700603, Spero SPR206 at 0.031 μg/mL, 2nd of 3 experiments, read-out: CBD MIC with Spero SPR206) of the same compound?
**A.** > 256 µg/mL

**Q.** What about the MIC ([1]; ATCC700603, Spero SPR206 at 0.062 μg/mL, 2nd of 3 experiments, read-out: CBD MIC with Spero SPR206) of the same compound?
**A.** > 256 µg/mL

**Q.** What about the MIC ([1]; ATCC700603, Spero SPR206 at 0.25 μg/mL, 1st of 3 experiments, read-out: CBD MIC with Spero SPR206) of the same compound?
**A.** 0.001 µg/mL

**Q.** And the MIC ([1]; ATCC700603, Spero SPR206 at 0.25 μg/mL, 2nd of 3 experiments, read-out: CBD MIC with Spero SPR206)?
**A.** 1 µg/mL

**Q.** What about the MIC ([1]; ATCC700603, Spero SPR206 at 0.25 μg/mL, 3rd of 3 experiments, read-out: CBD MIC with Spero SPR206) of the same compound?
**A.** > 256 µg/mL

**Q.** And the MIC ([1]; ATCC700603, Spero SPR206 at 0.5 μg/mL, 1st of 3 experiments, read-out: CBD MIC with Spero SPR206)?
**A.** 0.001 µg/mL

**Q.** And the MIC ([1]; ATCC700603, Spero SPR206 at 0.5 μg/mL, 3rd of 3 experiments, read-out: CBD MIC with Spero SPR206)?
**A.** > 256 µg/mL

**Q.** What about the MIC ([1]; ATCC700603, Spero SPR206 at 1 μg/mL, 1st of 3 experiments, read-out: CBD MIC with Spero SPR206) of the same compound?
**A.** 0.001 µg/mL

**Q.** What about the MIC ([1]; ATCC700603, Spero SPR206 at 1 μg/mL, 3rd of 3 experiments, read-out: CBD MIC with Spero SPR206) of the same compound?
**A.** > 256 µg/mL

**Q.** What about the MIC ([1]; ATCC700603, Spero SPR206 at 2 μg/mL, 1st of 3 experiments, read-out: CBD MIC with Spero SPR206) of the same compound?
**A.** 0.001 µg/mL

**Q.** And the MIC ([1]; ATCC700603, Spero SPR206 at 2 μg/mL, 3rd of 3 experiments, read-out: CBD MIC with Spero SPR206)?
**A.** 1 µg/mL

**Q.** And the MIC ([1]; ATCC700603, Spero SPR206 at 4 μg/mL, 1st of 3 experiments, read-out: CBD MIC with Spero SPR206)?
**A.** 0.001 µg/mL

**Q.** What about the MIC ([1]; ATCC700603, Spero SPR206 at 4 μg/mL, 3rd of 3 experiments, read-out: CBD MIC with Spero SPR206) of the same compound?
**A.** 0.001 µg/mL

**Q.** What about the MIC ([1]; ATCC700603, read-out: CBD MIC with Spero SPR206, Spero SPR206 at […], 1st of 3 experiments) of the same compound?
**A.** 4 µg/mL

**Q.** What about the MIC ([1]; ATCC700603, read-out: CBD MIC with Spero SPR206, Spero SPR206 at […], 2nd of 3 experiments) of the same compound?
**A.** 8 µg/mL

**Q.** What about the “CBD MIC with Octapeptin C4” value ([1]; Octapeptin C4 at 4 μg/mL, listed as CBD) of the same compound?
**A.** 0.5 µg/mL

**Q.** What about the “CBD MIC with Spero SPR206” value ([1]; Spero SPR206 at 2 μg/mL, 3rd of 3 experiments, listed as CBD) of the same compound?
**A.** 2 µg/mL

**Q.** What about the MIC ([2]; CBD alone, Escherichia coli ATCC 25922, read-out: CBD MIC) of the same compound?
**A.** 256 µg/mL (≈ 814 µM)

**Q.** And the “CBD MIC” value ([2]; CBD alone)?
**A.** 256 µg/mL

**Q.** What about the “CBD MIC” value ([2]; Escherichia coli ATCC 25922, CBD alone) of the same compound?
**A.** 256 µg/mL

**Q.** And the MIC ([2]; Escherichia coli, Example 1 Table 3, GN_001, compound alone, replicates, read-out: Minimal Inhibitory Concentration (MIC))?
**A.** > 256 µg/mL

**Q.** What about the MIC ([2]; Escherichia coli, Example 3 Table 11, GN_001, compound alone, replicates, read-out: Minimum Inhibitory Concentration (MIC)) of the same compound?
**A.** > 256 µg/mL

**Q.** And the “Minimal Inhibitory Concentration (MIC)” value ([2]; Example 1 Table 3, GN_001, compound alone, replicates)?
**A.** >256 µg/mL

**Q.** And the “Minimum Inhibitory Concentration (MIC)” value ([2]; Example 3 Table 11, GN_001, compound alone, replicates)?
**A.** >256 µg/mL

**Q.** And the “Minimum Inhibitory Concentration (MIC)” value ([2]; Example 6 Table 23, GN_001, compound alone, replicates)?
**A.** >256 µg/mL

**Q.** What about the “Minimal Inhibitory Concentration (MIC)” value ([2]; Example 7 Table 27, GN_001, compound alone, replicates) of the same compound?
**A.** >256 µg/mL
